Experimental data published in BigSolDB 2.1.

Cc1ccc([N+](=O)[O-])c(C(=O)O)c1
Conditions | solubility (mole fraction)
in isobutanol, 293.75 K | 0.113
in isobutanol, 299.15 K | 0.133
in isobutanol, 305.75 K | 0.153
in isobutanol, 311.15 K | 0.173
in isobutanol, 317.55 K | 0.193
in isobutanol, 322.95 K | 0.209
in isobutanol, 328.15 K | 0.227
in isobutanol, 333.65 K | 0.243
in n-butanol, 290.65 K | 0.167
in n-butanol, 292.15 K | 0.172
in n-butanol, 294.15 K | 0.183
in n-butanol, 297.75 K | 0.199
in n-butanol, 302.85 K | 0.218
in n-butanol, 307.15 K | 0.237
in n-butanol, 311.65 K | 0.256
in n-butanol, 315.15 K | 0.275
in n-butanol, 319.75 K | 0.295
in n-butanol, 323.85 K | 0.316
in n-butanol, 328.15 K | 0.338
in sec-butanol, 290.15 K | 0.185
in sec-butanol, 292.45 K | 0.199
in sec-butanol, 297.65 K | 0.225
in sec-butanol, 303.15 K | 0.253
in sec-butanol, 309.95 K | 0.28
in sec-butanol, 315.35 K | 0.305
in sec-butanol, 321.15 K | 0.329
in sec-butanol, 326.15 K | 0.352
in sec-butanol, 330.55 K | 0.372
in tert-butanol, 301.55 K | 0.255
in tert-butanol, 305.15 K | 0.274
in tert-butanol, 309.85 K | 0.295
in tert-butanol, 314.45 K | 0.318
in tert-butanol, 318.15 K | 0.341
in tert-butanol, 322.75 K | 0.366
in tert-butanol, 327.35 K | 0.392
in tert-butanol, 332.05 K | 0.418
in tert-butanol, 336.55 K | 0.445
in tert-butanol, 339.55 K | 0.473

Cc1cc(C(=O)O)ccc1[N+](=O)[O-]
Conditions | solubility (mole fraction)
in isobutanol, 306.95 K | 0.009
in isobutanol, 309.55 K | 0.0105
in isobutanol, 315.75 K | 0.0132
in isobutanol, 319.55 K | 0.0158
in isobutanol, 323.85 K | 0.0192
in isobutanol, 328.95 K | 0.0235
in isobutanol, 333.95 K | 0.0283
in isobutanol, 337.95 K | 0.0332
in isobutanol, 342.15 K | 0.0391
in isobutanol, 346.65 K | 0.0457
in n-butanol, 305.15 K | 0.013
in n-butanol, 309.55 K | 0.0153
in n-butanol, 314.95 K | 0.0177
in n-butanol, 318.35 K | 0.0201
in n-butanol, 321.35 K | 0.0228
in n-butanol, 324.35 K | 0.026
in n-butanol, 327.95 K | 0.03
in n-butanol, 332.05 K | 0.0349
in n-butanol, 336.75 K | 0.0405
in n-butanol, 341.25 K | 0.047
in n-butanol, 345.35 K | 0.0546
in sec-butanol, 304.55 K | 0.0142
in sec-butanol, 307.65 K | 0.0166
in sec-butanol, 311.55 K | 0.0199
in sec-butanol, 316.25 K | 0.0243
in sec-butanol, 321.35 K | 0.0297
in sec-butanol, 326.15 K | 0.0359
in sec-butanol, 331.15 K | 0.0428
in sec-butanol, 335.25 K | 0.05
in sec-butanol, 339.25 K | 0.0578
in sec-butanol, 343.55 K | 0.0667
in tert-butanol, 304.35 K | 0.0193
in tert-butanol, 306.95 K | 0.0229
in tert-butanol, 310.15 K | 0.0271
in tert-butanol, 314.95 K | 0.0321
in tert-butanol, 317.95 K | 0.0372
in tert-butanol, 321.65 K | 0.043
in tert-butanol, 325.85 K | 0.0493
in tert-butanol, 329.45 K | 0.0556
in tert-butanol, 333.05 K | 0.0627
in tert-butanol, 336.35 K | 0.0703
in tert-butanol, 339.65 K | 0.0791
in tert-butanol, 343.65 K | 0.0878
in tert-butanol, 345.25 K | 0.0915

Cc1cccc(C(=O)O)c1[N+](=O)[O-]
Conditions | solubility (mole fraction)
in isobutanol, 297.15 K | 0.0102
in isobutanol, 300.65 K | 0.0119
in isobutanol, 303.45 K | 0.0138
in isobutanol, 306.55 K | 0.0161
in isobutanol, 311.15 K | 0.0193
in isobutanol, 315.05 K | 0.0227
in isobutanol, 317.85 K | 0.0268
in isobutanol, 322.15 K | 0.0314
in isobutanol, 326.25 K | 0.0367
in isobutanol, 330.35 K | 0.0425
in isobutanol, 333.45 K | 0.0486
in isobutanol, 337.15 K | 0.0558
in n-butanol, 300.75 K | 0.0177
in n-butanol, 304.15 K | 0.0199
in n-butanol, 307.55 K | 0.0228
in n-butanol, 312.55 K | 0.0264
in n-butanol, 316.15 K | 0.0304
in n-butanol, 319.85 K | 0.0351
in n-butanol, 324.15 K | 0.0406
in n-butanol, 328.25 K | 0.0466
in n-butanol, 332.25 K | 0.0529
in n-butanol, 335.95 K | 0.0597
in n-butanol, 339.95 K | 0.0676
in n-butanol, 343.45 K | 0.0742
in sec-butanol, 305.05 K | 0.024
in sec-butanol, 307.65 K | 0.0272
in sec-butanol, 311.15 K | 0.0314
in sec-butanol, 315.25 K | 0.0373
in sec-butanol, 319.85 K | 0.0447
in sec-butanol, 323.95 K | 0.053
in sec-butanol, 328.85 K | 0.0622
in sec-butanol, 333.35 K | 0.0718
in sec-butanol, 337.65 K | 0.0817
in sec-butanol, 342.25 K | 0.0921
in sec-butanol, 346.25 K | 0.102
in tert-butanol, 301.35 K | 0.0307
in tert-butanol, 304.05 K | 0.0328
in tert-butanol, 306.25 K | 0.0366
in tert-butanol, 310.05 K | 0.0442
in tert-butanol, 314.75 K | 0.0531
in tert-butanol, 318.95 K | 0.0619
in tert-butanol, 323.05 K | 0.0711
in tert-butanol, 327.35 K | 0.0802
in tert-butanol, 331.45 K | 0.0898
in tert-butanol, 335.95 K | 0.0999
in tert-butanol, 340.65 K | 0.111
